Measured values published in patent US20100255580A1, “Differentiation of Human Embryonic Stem Cells” (LIFESCCAN, INC., priority 2007, published 2010).

Experiments:
Type in all cases: cell-based
[1] = test system: human embryonic stem cell line H1; assay: Real-time PCR of definitive endoderm markers, H1 on human serum or […] (Examples 30, 31, 35); conditions: for expression of definitive endoderm markers: H1 passage 55 on human serum coated plates, with activin A, vs activin A only
Procedure: Cultures of the human embryonic stem cell line H1 at passage 55 were grown and differentiated on human serum (Sigma, #H1388, MO) coated plates. 0.5 ml of human serum was added to each well of 6 well tissue culture treated dish, incubated for 1 hr at room temperature, and aspirated before adding human embryonic stem cells. After cells reached 80% confluency, they were treated as follows: 2 days 0.5% FBS containing 10 ng/ml mouse recombinant Wnt3a (R&D) or 100 nM GSK-3B inhibitor IX (Catalog #361550, Calbiochem, CA) and 100 ng/mlActivin A (R&D). This was followed by 3 days 2% FBS plus 100 ng/mlActivin A. Cultures were then analyzed by real-time PCR (FIG. 46, panels a & b). […] These findings parallel our findings for human embryonic stem cells cultured on […]™ or human fibronectin coated plates.
The effectiveness of a number of commercially available GSK-3B inhibitors was evaluated in formation of DE from human embryonic stem cells. The following GSK-3B inhibitors were evaluated at 100 nM: GSK-3B inhibitor VIII (Catalog #361549, Calbiochem, CA), GSK-3B inhibitor IX (Catalog #361550, Calbiochem, CA), GSK-3B inhibitor XI (Catalog #361553, Calbiochem, CA), GSK-3B inhibitor XII (Catalog #361554, Calbiochem, CA). […] Control cultures were treated with low serum plus high dose of AA. FIG. 47, panels a and b depicts the gene expression of definitive endoderm markers at day 5. GSK-3B inhibitor IX and XI were both effective in inducing DE formation as compared to GSK-3B inhibitor VIII and XII.
The following combinations of WNT1+AA were tested:
a) 20 ng/ml of WNT1+100 ng/ml AA in 0.5% FBS+DM-F12 for days 1-2 followed by 2% FBS+DM-F12+100 ng/ml AA for day three, b) 20 ng/ml of WNT1+100 ng/ml AA in 0.5% FBS+DM-F12 for days 1-2 followed by 2% FBS+DM-F12+100 ng/ml AA for days 3-5, c) 10 ng/ml of WNT1+100 ng/ml AA in 0.5% FBS+DM-F12 for days 1-2 followed by 2% FBS+DM-F12+100 ng/ml AA for day three, d) 10 ng/ml of WNT1+100 ng/ml AA in 0.5% FBS+DM-F12 for days 1-2 followed by 2% FBS+DM-F12+100 ng/ml AA for days 3-5, e) 20 ng/ml of WNT1+100 ng/ml AA in 0.5% FBS+DM-F12 for days 1-2 followed by 2% FBS+DM-F12+100 ng/ml AA+20 ng/ml of WNT1 for day three, f) 20 ng/ml of WNT1+100 ng/ml AA in 0.5% FBS+DM-F12 for days 1-2 followed by 2% FBS+DM-F12+100 ng/ml AA+20 ng/ml of WNT1 for days 3-5.

[2] = test system: human embryonic stem cell line H9; assay: FACS of CXCR4 and CD9, H9 maintained on […] and differentiated on MEFs (Example 25); conditions: for CXCR4 positive cells (FACS): without (label Activin A) or with Wnt3a
Procedure: Adhered cells were removed from culture plates by five-minute incubation with TrypLE™ Express solution (Invitrogen, CA). Released cells were resuspended in human embryonic stem cell culture medium and recovered by centrifugation, followed by washing and resuspending the cells in a staining buffer consisting of 2% BSA, 0.05% sodium azide in PBS (Sigma, MO). As appropriate, the cells were Fc-receptor blocked for 15 minutes using a 0.1% γ-globulin (Sigma) solution. […] Controls included appropriate isotype matched antibodies, unstained cells, and cells stained only with secondary conjugated antibody. All incubations with antibodies were performed for 30 mins at 4° C. after which the cells were washed with the staining buffer. Samples that were stained with unconjugated primary antibodies were incubated for an additional 30 mins at 4° C. with secondary conjugated PE or -APC labeled antibodies. See Table I for a list of secondary antibodies used. Washed cells were pelleted and resuspended in the staining buffer, and the cell surface molecules were identified using a FACS Array (BD Biosciences) instrument, collecting at least 10,000 events.
(§1) Cells from the human embryonic stem cell line H9 cultured on […]™ for at least five passages were seeded onto MEF feeders in ES media.
(§2) At day 3 and 5, the cultures were analyzed by real time PCR for SOX-17, SOX-7, Alpha-fetal protein (AFP), CXCR4, Brychyury (Bry), gooscecoid (GSC), HNF-3 beta, GATA4, hTERT and Oct4. AFP and SOX-7 are regarded as visceral endoderm markers while GATA4, HNF-3beta and SOX-17 represent definite endoderm markers and GSC, Bry, and CXCR4 represent markers of primitive streak. hTERT and Oct-4 are markers for self renewal and pluripotency respectively. FACS analysis was also performed at day 3 and 5.

[3] = test system: human embryonic stem cell line H9; assay: Real-time PCR, H9 maintained on […] and differentiated on MEFs (Example 25)
Procedure: as §1, §2

[4] = day 3, high concentration of Activin A
[5] = day 5, high concentration of activin A

| Compound | inducing DE formation ([1]; H1P54 on MATRIGEL, 100 nM for first two days, compared to GSK-3B inhibitor VIII and XII) | expression of definitive endoderm markers [1] | CXCR4 positive cells (FACS) [2, 4] | CXCR4 positive cells (FACS) [2, 5] | AFP expression ([3]; lower concentration of Activin A, regardless of Wnt3a) | role in differentiation of human embryonic stem cells, cultured on MEFs, to definitive endoderm [2] | AFP expression ([3]; Wnt3a 20 ng/ml added to 100 ng/ml activin A, increases over time) |
| --- | --- | --- | --- | --- | --- | --- | --- |
| O=C1Nc2cc(Br)ccc2/C1=C1/Nc2ccccc2/C1=N\O [GSK-3B inhibitor IX, reference compound] | effective | Robust expression |  |  |  |  |  |
| Activin A: a member of the TGFβ superfamily; R&D Systems; Group 2 = Activin A (100 ng/ml) |  |  | 32-42% | 28-32% | very high |  |  |
| Wnt-3a |  | Robust expression | 23-33% | 43-51% |  | does not appear to play a significant role | increase in the expression of AFP |
